Measured values reported in PubChem BioAssay AID1845212 (Molecular Pharmacology Branch, DTP, NCI, 2023).

System: NCI-H719 tumor spheroids, viability
Assay: Anticancer human tumor NCI-H719 cell line growth inhibition;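 note: spheroids exposed to compounds for seven days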;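 for viability, T/C: percent viability relative to DMSO vehicle control as 100%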
Settings: spheroids with HUVEC and MSC; for IC50: curve of first compound; for viability, T/C: stronger effect = lower value
How it was run: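 Single agents and combinations were tested on spheroids built from tumor cells plus HUVEC and hMSC, at half-log dilutions starting at or near clinical Cmax, else 10 microM; final DMSO 0.25% (v/v).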

[1] = second compound 0.003 µM, first compound 0.0316 µM
[2] = second compound 0.003 µM, first compound 0.1 µM
[3] = second compound 0.003 µM, first compound 0.316 µM
[4] = second compound 0.003 µM, first compound 1 µM
[5] = second compound 0.003 µM, first compound 3.16 µM
[6] = second compound 0.003 µM, first compound 10 µM
[7] = second compound 0.00949 µM, first compound 0.0316 µM
[8] = second compound 0.00949 µM, first compound 0.1 µM
[9] = second compound 0.00949 µM, first compound 0.316 µM
[10] = second compound 0.00949 µM, first compound 1 µM
[11] = second compound 0.00949 µM, first compound 3.16 µM
[12] = second compound 0.00949 µM, first compound 10 µM
[13] = second compound 0.03 µM, first compound 0.0316 µM
[14] = second compound 0.03 µM, first compound 0.1 µM
[15] = second compound 0.03 µM, first compound 0.316 µM
[16] = second compound 0.03 µM, first compound 1 µM
[17] = second compound 0.03 µM, first compound 3.16 µM
[18] = second compound 0.03 µM, first compound 10 µM
[19] = second compound 0.0949 µM, first compound 0.0316 µM
[20] = second compound 0.0949 µM, first compound 0.1 µM
[21] = second compound 0.0949 µM, first compound 0.316 µM
[22] = second compound 0.0949 µM, first compound 1 µM
[23] = second compound 0.0949 µM, first compound 3.16 µM
[24] = second compound 0.0949 µM, first compound 10 µM
[25] = second compound 0.3 µM, first compound 0.0316 µM
[26] = second compound 0.3 µM, first compound 0.1 µM
[27] = second compound 0.3 µM, first compound 0.316 µM
[28] = second compound 0.3 µM, first compound 1 µM
[29] = second compound 0.3 µM, first compound 3.16 µM
[30] = second compound 0.3 µM, first compound 10 µM

Compound | IC50 (second compound 0.003 µM) [µM] | IC50 (second compound 0.00949 µM) [µM] | IC50 (second compound 0.03 µM) [µM] | IC50 (second compound 0.0949 µM) [µM] | IC50 (second compound 0.3 µM) [µM] | viability, T/C [1] [%] | viability, T/C [2] [%] | viability, T/C [3] [%] | viability, T/C [4] [%] | viability, T/C [5] [%] | viability, T/C [6] [%] | viability, T/C [7] [%] | viability, T/C [8] [%] | viability, T/C [9] [%] | viability, T/C [10] [%] | viability, T/C [11] [%] | viability, T/C [12] [%] | viability, T/C [13] [%] | viability, T/C [14] [%] | viability, T/C [15] [%] | also measured
CC1COCCN1c1cc(-c2ccnn2C)c2ccnc(-c3ccn[nH]3)c2n1 (stereo not given) + CC[C@@]1(O)C(=O)OCc2c1cc1n(c2=O)Cc2cc3c(CN(C)C)c(O)ccc3nc2-1 | < 0.0316 | < 0.0316 | < 0.0316 | < 0.0316 | < 0.0316 | 14.9 | 7.36 | 5.05 | 5.69 | 5.95 | 7.37 | 5.44 | 4.76 | 5.26 | 4.81 | 5.91 | 7.24 | 5.59 | 5.35 | 4.66 | viability, T/C [16]: 4.18%; viability, T/C [17]: 5.76%; viability, T/C [18]: 7.48%; viability, T/C [19]: 5.89%; viability, T/C [20]: 5.72%; viability, T/C [21]: 4.2%; viability, T/C [22]: 3.96%; viability, T/C [23]: 3.73%; viability, T/C [24]: 3.78%; viability, T/C [25]: 5.64%; viability, T/C [26]: 5.76%; viability, T/C [27]: 5.49%; viability, T/C [28]: 2.94%; viability, T/C [29]: 2.15%; viability, T/C [30]: 2.17%
COc1cc(C)[nH]c(=O)c1CN1CCc2c(Cl)cc(C(OC)C3COC3)c(Cl)c2C1=O (stereo not given) + CC[C@@]1(O)C(=O)OCc2c1cc1n(c2=O)Cc2cc3c(CN(C)C)c(O)ccc3nc2-1 | > 10 | < 0.0316 | < 0.0316 | < 0.0316 | < 0.0316 | 69.7 | 57.6 | 74.2 | 65 | 77 | 69.1 | 12.2 | 9.34 | 9.67 | 10.4 | 7.95 | 7.67 | 6.93 | 8.47 | 6.68 | viability, T/C [16]: 8.32%; viability, T/C [17]: 8.79%; viability, T/C [18]: 7.28%; viability, T/C [19]: 8.78%; viability, T/C [20]: 7.8%; viability, T/C [21]: 7.84%; viability, T/C [22]: 8.96%; viability, T/C [23]: 8.75%; viability, T/C [24]: 8.8%; viability, T/C [25]: 7.71%; viability, T/C [26]: 9.03%; viability, T/C [27]: 8.64%; viability, T/C [28]: 9.67%; viability, T/C [29]: 8.76%; viability, T/C [30]: 7.22%
Cc1cc(C)c(CNC(=O)c2cc(-c3ccc(CN4CCOCC4)cc3)cc3c2cnn3C2CCCC2)c(=O)[nH]1 + CC[C@@]1(O)C(=O)OCc2c1cc1n(c2=O)Cc2cc3c(CN(C)C)c(O)ccc3nc2-1 | 2.26 | < 0.0316 | < 0.0316 | < 0.0316 | < 0.0316 | 52.6 | 52.9 | 54.8 | 51.6 | 49.1 | 39.2 | 6.76 | 6.82 | 6.88 | 6.69 | 6.81 | 5.13 | 6.03 | 5.75 | 6.33 | viability, T/C [16]: 5.99%; viability, T/C [17]: 6.45%; viability, T/C [18]: 16.3%; viability, T/C [19]: 5.7%; viability, T/C [20]: 5.83%; viability, T/C [21]: 5.84%; viability, T/C [22]: 6.02%; viability, T/C [23]: 6.69%; viability, T/C [24]: 6.41%; viability, T/C [25]: 5.68%; viability, T/C [26]: 6.37%; viability, T/C [27]: 6.67%; viability, T/C [28]: 6.18%; viability, T/C [29]: 6.37%; viability, T/C [30]: 6.13%
[2H]c1nc(C)nc([2H])c1-c1cc(NC[C@@H](C)c2cccc3c(C(=O)NC)ccnc23)ncn1 + CC[C@@]1(O)C(=O)OCc2c1cc1n(c2=O)Cc2cc3c(CN(C)C)c(O)ccc3nc2-1 | > 10 | < 0.0316 | < 0.0316 | < 0.0316 | < 0.0316 | 51 | 62.2 | 63.5 | 52 | 66 | 51.4 | 10.3 | 8.59 | 8.43 | 7.06 | 6.95 | 9.89 | 7.23 | 6.65 | 6.56 | viability, T/C [16]: 8.39%; viability, T/C [17]: 8.61%; viability, T/C [18]: 8.73%; viability, T/C [19]: 7.9%; viability, T/C [20]: 7.8%; viability, T/C [21]: 7.91%; viability, T/C [22]: 7.63%; viability, T/C [23]: 7.79%; viability, T/C [24]: 9.29%; viability, T/C [25]: 8.56%; viability, T/C [26]: 8.32%; viability, T/C [27]: 8.45%; viability, T/C [28]: 8.64%; viability, T/C [29]: 8.15%; viability, T/C [30]: 8.2%
